Data: patent US10870619B2 (CJ CHEILJEDANG CORPORATION, priority 2016, dated 2020)
Like-named read-outs stand apart in the source and are kept apart here.

Conditions: crystals obtained by the crystallization process of the respective example (pH adjustment, coagulant, pH readjustment, cooling rate vary)
Method: As used herein, the term “bulk density” refers to the density measured based on the volume including voids generated between particles when powder is filled into a container. In particular, the density of powder which is measured after treating the powder by tapping a cylinder filled with the powder with a constant force so as to make the powder within the cylinder dense is called tapped bulk density (hereinafter, “BD”).

CSCC[C@H](N)C(=O)O [Comparative Example 1, L-methionine, reference compound]
BD (tapped bulk density) of the obtained L-methionine crystals: 190 g/L | BD (tapped bulk density) of the obtained L-methionine crystals (listed as Comp. Ex. 1): 190 g/L

CSCC[C@H](N)C(=O)O [Comparative Example 2, L-methionine, reference compound]
BD (tapped bulk density) of the obtained L-methionine crystals: 520 g/L | BD (tapped bulk density) of the obtained L-methionine crystals (listed as Comp. Ex. 2): 520 g/L

CSCC[C@H](N)C(=O)O [Comparative Example 3, L-methionine, reference compound]
BD (tapped bulk density) of the obtained L-methionine crystals: 500 g/L | BD (tapped bulk density) of the obtained L-methionine crystals (listed as Comp. Ex. 3): 500 g/L

CSCC[C@H](N)C(=O)O [Comparative Example 4, L-methionine, reference compound]
BD (tapped bulk density) of the obtained L-methionine crystals: 500 g/L | BD (tapped bulk density) of the obtained L-methionine crystals (listed as Comp. Ex. 4): 500 g/L

CSCC[C@H](N)C(=O)O [Comparative Example 5, L-methionine, reference compound]
BD (tapped bulk density) of the obtained L-methionine crystals: 490 g/L | BD (tapped bulk density) of the obtained L-methionine crystals (listed as Comp. Ex. 5): 490 g/L

CSCC[C@H](N)C(=O)O [Comparative Example 6, L-methionine, reference compound]
BD (tapped bulk density) of the obtained L-methionine crystals: 450 g/L | BD (tapped bulk density) of the obtained L-methionine crystals (listed as Comp. Ex. 6): 450 g/L

CSCC[C@H](N)C(=O)O [Comparative Example 7, L-methionine, reference compound]
BD (tapped bulk density) of the obtained L-methionine crystals: 510 g/L | BD (tapped bulk density) of the obtained L-methionine crystals (listed as Comp. Ex. 7): 510 g/L

CSCC[C@H](N)C(=O)O [Comparative Example 8, L-methionine, reference compound]
BD (tapped bulk density) of the obtained L-methionine crystals: 450 g/L | BD (tapped bulk density) of the obtained L-methionine crystals (listed as Comp. Ex. 8): 450 g/L

CSCC[C@H](N)C(=O)O [Comparative Example 9, L-methionine, reference compound]
BD (tapped bulk density) of the obtained L-methionine crystals: 460 g/L | BD (tapped bulk density) of the obtained L-methionine crystals (listed as Comp. Ex. 9): 460 g/L

CSCC[C@H](N)C(=O)O [Comparative Example 10, L-methionine, reference compound]
BD (tapped bulk density) of the obtained L-methionine crystals: 630 g/L | BD (tapped bulk density) of the obtained L-methionine crystals (listed as Comp. Ex. 10): 630 g/L

CSCC[C@H](N)C(=O)O [Comparative Example 11, L-methionine, reference compound]
BD (tapped bulk density) of the obtained L-methionine crystals (listed as Comp. Ex. 11): 410 g/L

CSCC[C@H](N)C(=O)O [Comparative Example 12, L-methionine, reference compound]
BD (tapped bulk density) of the obtained L-methionine crystals: 660 g/L | BD (tapped bulk density) of the obtained L-methionine crystals (listed as Comp. Ex. 12): 660 g/L

CSCC[C@H](N)C(=O)O [Comparative Example 13, L-methionine, reference compound]
BD (tapped bulk density) of the obtained L-methionine crystals: 400 g/L | BD (tapped bulk density) of the obtained L-methionine crystals (listed as Comp. Ex. 13): 400 g/L

CSCC[C@H](N)C(=O)O [Example 1, L-methionine]
BD (tapped bulk density) of the obtained L-methionine crystals: 370 g/L | BD (tapped bulk density) of the obtained L-methionine crystals (listed as Ex. 1): 370 g/L

CSCC[C@H](N)C(=O)O [Example 2, L-methionine]
BD (tapped bulk density) of the obtained L-methionine crystals: 350 g/L | BD (tapped bulk density) of the obtained L-methionine crystals (listed as Ex. 2): 350 g/L

CSCC[C@H](N)C(=O)O [Example 3, L-methionine]
BD (tapped bulk density) of the obtained L-methionine crystals: 610 g/L | BD (tapped bulk density) of the obtained L-methionine crystals (listed as Ex. 3): 610 g/L

CSCC[C@H](N)C(=O)O [Example 4, L-methionine]
BD (tapped bulk density) of the obtained L-methionine crystals: 590 g/L | BD (tapped bulk density) of the obtained L-methionine crystals (listed as Ex. 4): 590 g/L

CSCC[C@H](N)C(=O)O [Example 5, L-methionine]
BD (tapped bulk density) of the obtained L-methionine crystals: 590 g/L | BD (tapped bulk density) of the obtained L-methionine crystals (listed as Ex. 5): 590 g/L

CSCC[C@H](N)C(=O)O [Example 6, L-methionine]
BD (tapped bulk density) of the obtained L-methionine crystals: 580 g/L | BD (tapped bulk density) of the obtained L-methionine crystals (listed as Ex. 6): 580 g/L

CSCC[C@H](N)C(=O)O [Example 7, L-methionine]
BD (tapped bulk density) of the obtained L-methionine crystals: 570 g/L | BD (tapped bulk density) of the obtained L-methionine crystals (listed as Ex. 7): 570 g/L

CSCC[C@H](N)C(=O)O [Example 8, L-methionine]
BD (tapped bulk density) of the obtained L-methionine crystals: 570 g/L | BD (tapped bulk density) of the obtained L-methionine crystals (listed as Ex. 8): 570 g/L

CSCC[C@H](N)C(=O)O [Example 9, L-methionine]
BD (tapped bulk density) of the obtained L-methionine crystals: 560 g/L | BD (tapped bulk density) of the obtained L-methionine crystals (listed as Ex. 9): 560 g/L

CSCC[C@H](N)C(=O)O [Example 10, L-methionine]
BD (tapped bulk density) of the obtained L-methionine crystals: 580 g/L | BD (tapped bulk density) of the obtained L-methionine crystals (listed as Ex. 10): 580 g/L

CSCC[C@H](N)C(=O)O [Example 11, L-methionine]
BD (tapped bulk density) of the obtained L-methionine crystals: 550 g/L | BD (tapped bulk density) of the obtained L-methionine crystals (listed as Ex. 11): 550 g/L

CSCC[C@H](N)C(=O)O [Example 12, L-methionine]
BD (tapped bulk density) of the obtained L-methionine crystals: 560 g/L | BD (tapped bulk density) of the obtained L-methionine crystals (listed as Ex. 12): 560 g/L

CSCC[C@H](N)C(=O)O [Example 13, L-methionine]
BD (tapped bulk density) of the obtained L-methionine crystals: 530 g/L | BD (tapped bulk density) of the obtained L-methionine crystals (listed as Ex. 13): 530 g/L

CSCC[C@H](N)C(=O)O [Example 14, L-methionine]
BD (tapped bulk density) of the obtained L-methionine crystals: 600 g/L | BD (tapped bulk density) of the obtained L-methionine crystals (listed as Ex. 14): 600 g/L

CSCC[C@H](N)C(=O)O [Example 15, L-methionine]
BD (tapped bulk density) of the obtained L-methionine crystals: 500 g/L | BD (tapped bulk density) of the obtained L-methionine crystals (listed as Ex. 15): 500 g/L

CSCC[C@H](N)C(=O)O [Example 16, L-methionine]
BD (tapped bulk density) of the obtained L-methionine crystals: 480 g/L | BD (tapped bulk density) of the obtained L-methionine crystals (listed as Ex. 16): 480 g/L

CSCC[C@H](N)C(=O)O [Example 17, L-methionine]
BD (tapped bulk density) of the obtained L-methionine crystals: 690 g/L | BD (tapped bulk density) of the obtained L-methionine crystals (listed as Ex. 17): 690 g/L

CSCC[C@H](N)C(=O)O [Example 18, L-methionine]
BD (tapped bulk density) of the obtained L-methionine crystals: 730 g/L | BD (tapped bulk density) of the obtained L-methionine crystals (listed as Ex. 18): 730 g/L

CSCC[C@H](N)C(=O)O [Example 19, L-methionine]
BD (tapped bulk density) of the obtained L-methionine crystals: 750 g/L | BD (tapped bulk density) of the obtained L-methionine crystals (listed as Ex. 19): 750 g/L

CSCC[C@H](N)C(=O)O [Example 20, L-methionine]
BD (tapped bulk density) of the obtained L-methionine crystals: 760 g/L | BD (tapped bulk density) of the obtained L-methionine crystals (listed as Ex. 20): 760 g/L

CSCC[C@H](N)C(=O)O [Example 21, L-methionine]
BD (tapped bulk density) of the obtained L-methionine crystals: 800 g/L | BD (tapped bulk density) of the obtained L-methionine crystals (listed as Ex. 21): 800 g/L

CSCC[C@H](N)C(=O)O [Example 22, L-methionine]
BD (tapped bulk density) of the obtained L-methionine crystals: 700 g/L | BD (tapped bulk density) of the obtained L-methionine crystals (listed as Ex. 22): 700 g/L
